Experimental data published in ChEMBL document CHEMBL5352460, “Antibacterial activity evaluation of pleuromutilin derivatives with 4(3H)-quinazolinone scaffold against methicillin-resistant Staphylococcusaureus” (Eur J Med Chem, 2023).
Values after ≈ are worked out from the molar mass of the structure shown.

How the values were obtained:
[1] = Metabolic stability in rat liver microsomes assessed as intrinsic clearance incubated for 45 mins in the presence of NADPH by LC/MS analysis; type: ADME, Microsome; settings: read-out: CLH
[2] = Metabolic stability in rat liver microsomes assessed as parent compound remaining incubated for 45 mins in the presence of NADPH by LC/MS analysis; type: ADME, Microsome; settings: read-out: Stability
[3] = Metabolic stability in rat liver microsomes assessed as half-life incubated for 45 mins in the presence of NADPH by LC/MS analysis; type: ADME, Microsome
[4] = Cytotoxicity against mouse RAW264.7 cells assessed as inhibition of cell growth at 100 uM incubated for 72 hrs by CCK8 assay relative to control; type: toxicity, cell-based
Staphylococcus aureus [5] = assay: microbe, parasite or virus in culture; type: functional; settings: ATCC29213, time 20 hrs
Staphylococcus aureus [6] = assay: Antibacterial activity against methicillin-resistant Staphylococcus aureus infected in cyclophosphamide-induced neutropenic thigh infection Kunming mouse model assessed as reduction in bacterial count at 50 mg/kg, ip pre-infected with bacteria for 2 hrs followed by compound treatment and measured after 26 hrs; type: functional
Staphylococcus aureus [7] = assay: Post antibiotic effect against methicillin-resistant Staphylococcus aureus assessed as time required for 1 log10 increase in CFU at 4 times of MIC incubated for 2 hrs followed by drug washout and measured after 24 hrs; type: functional
Staphylococcus aureus [8] = assay: Bactericidal activity against methicillin-resistant Staphylococcus aureus assessed as reduction in bacterial count at 1 to 10 times of MIC incubated for 24 hrs by serial dilution based time-kill kinetics assay; type: functional
[9] = Metabolic stability in rat whole blood assessed as parent compound remaining measured immediately by LC-MS analysis; type: ADME, tissue-based; settings: read-out: Stability
Staphylococcus aureus [10] = assay: Antibacterial activity against methicillin-resistant Staphylococcus aureus assessed as reduction in bacterial growth at 1 to 10 times of MIC by serial dilution based time-kill kinetics assay; type: functional, organism-based; settings: time <= 24.0 hrs, TDE = time-dependent effect
[11] = Metabolic stability in rat whole blood assessed as half-life incubated upto 120 mins by LC/MS analysis; type: ADME, tissue-based
[12] = Metabolic stability in rat whole blood assessed as parent compound remaining measured after 120 mins by LC-MS analysis; type: ADME, tissue-based; settings: read-out: Stability
[13] = Cytotoxicity against mouse RAW264.7 cells assessed as inhibition of cell growth incubated for 72 hrs by CCK8 assay; type: toxicity, cell-based
[14] = Metabolic stability in rat whole blood assessed as parent compound remaining measured after 5 mins by LC-MS analysis; type: ADME, tissue-based; settings: read-out: Stability
[15] = Metabolic stability in rat whole blood assessed as parent compound remaining measured after 60 mins by LC-MS analysis; type: ADME, tissue-based; settings: read-out: Stability
Staphylococcus aureus [16] = assay: microbe, parasite or virus in culture; type: functional; settings: time 20 hrs
[17] = Metabolic stability in rat whole blood assessed as parent compound remaining measured after 30 mins by LC-MS analysis; type: ADME, tissue-based; settings: read-out: Stability
[18] = Metabolic stability in rat whole blood assessed as parent compound remaining measured after 15 mins by LC-MS analysis; type: ADME, tissue-based; settings: read-out: Stability
Staphylococcus aureus [19] = assay: Post antibiotic effect against methicillin-resistant Staphylococcus aureus assessed as time required for 1 log10 increase in CFU at 2 times of MIC incubated for 2 hrs followed by drug washout and measured after 24 hrs; type: functional
Staphylococcus aureus [20] = assay: microbe, parasite or virus in culture; type: functional; settings: ATCC25923, time 20 hrs
[21] = Antibacterial activity against Salmonella pullorum assessed as inhibition of bacterial growth incubated for 20 hrs by absorbance based analysis; type: functional, Salmonella enterica subsp. enterica serovar Pullorum; settings: Salmonella enterica
Staphylococcus aureus [22] = assay: Post antibiotic effect against methicillin-resistant Staphylococcus aureus assessed as time required for 1 log10 increase in CFU at 1 time of MIC incubated for 2 hrs followed by drug washout and measured after 24 hrs; type: functional
[23] = test system: Staphylococcus epidermidis; assay: Antibacterial activity against methicillin-resistant Staphylococcus epidermidis assessed as inhibition of bacterial growth incubated for 20 hrs by absorbance based analysis; type: functional
Staphylococcus aureus [24] = assay: Post antibiotic effect against methicillin-resistant Staphylococcus aureus assessed as time required for 1 log10 increase in CFU at 10 times of MIC incubated for 2 hrs followed by drug washout and measured after 24 hrs; type: functional
Escherichia coli = assay: microbe, parasite or virus in culture; type: functional; settings: ATCC25922, time 20 hrs

| Structure (SMILES) | microsomal CLint [1] [µL/min/mg] | remaining at 0.75 h [2] [%] | half-life [3] [min] | MIC (Staphylococcus aureus [5]) [µg/mL] | remaining at 0 min [9] [%] | half-life [11] [min] | remaining at 2 h [12] [%] | remaining at 5 min [14] [%] | remaining at 1 h [15] [%] | MIC (Staphylococcus aureus [16]) [µg/mL] | remaining at 0.5 h [17] [%] | remaining at 0.25 h [18] [%] | MIC (Staphylococcus aureus [20]) [µg/mL] | MIC [21] [µg/mL] | MIC [23] [µg/mL] | MIC (Escherichia coli) [µg/mL] | other results |
| --- | --- | --- | --- | --- | --- | --- | --- | --- | --- | --- | --- | --- | --- | --- | --- | --- | --- |
| O=C(c1ccc(F)cc1)C1CCN(CCn2c(=O)[nH]c3ccccc3c2=O)CC1 [KETANSERIN] | 88.9 | 33.5 | 27.9 | – | – | – | – | – | – | – | – | – | – | – | – | – | – |
| C=C[C@]1(C)C[C@@H](OC(=O)CSc2nc3[nH]ccc3c(=O)[nH]2)[C@]2(C)[C@H](C)CC[C@]3(CCC(=O)[C@H]32)[C@@H](C)[C@@H]1O | 764 | 3.59 | 3.25 | 0.063 (≈ 0.119 µM) | 100 | > 120 | 81.4 | 94.4 | 85.6 | 0.063 (≈ 0.119 µM) | 86.2 | 88.4 | 0.063 (≈ 0.119 µM) | 64 (≈ 121 µM) | 0.25 (≈ 0.474 µM) | – | inhibition at 72 h, 100 µM [4]: > 70%; Activity (Staphylococcus aureus [6]): 1.84 log10CFU/ml; Time (Staphylococcus aureus [7]): 2.33 h; Activity (Staphylococcus aureus [8]): 3.26 log10CFU/ml; Activity (Staphylococcus aureus [10]): Tde; IC50 at 72 h [13]: > 100 µM; Time (Staphylococcus aureus [19]): 1.9 h; Time (Staphylococcus aureus [22]): 1.78 h; Time (Staphylococcus aureus [24]): 2.66 h |
| C=C[C@]1(C)C[C@@H](OC(=O)CSCCN(CC)CC)[C@]2(C)[C@H](C)CC[C@]3(CCC(=O)[C@H]32)[C@@H](C)[C@@H]1O [TIAMULIN] | 1340 | 0.88 | 1.85 | 0.5 (≈ 1.01 µM) | 100 | > 120 | 84 | 94.8 | 87.3 | 0.5 (≈ 1.01 µM) | 88.5 | 90.7 | 1 (≈ 2.03 µM) | > 64 | 1 (≈ 2.03 µM) | > 64 | inhibition at 72 h, 100 µM [4]: ~60%; Activity (Staphylococcus aureus [6]): 1.62 log10CFU/ml; Time (Staphylococcus aureus [7]): 2.08 h; Time (Staphylococcus aureus [19]): 1.79 h; Time (Staphylococcus aureus [22]): 1.95 h; Time (Staphylococcus aureus [24]): 2.17 h |
| CC(Cc1cccc(C(F)(F)F)c1)NCCOC(=O)c1ccccc1 (configuration not stated) [BENFLUOREX] | – | – | – | – | 100 | 25.2 | 3.63 | 77.8 | 19.5 | – | 49.2 | 71.3 | – | – | – | – | – |
| C=C[C@]1(C)C[C@@H](OC(=O)CS[C@@H]2C[C@H]3CC[C@@H](C2)N3C)[C@]2(C)[C@H](C)CC[C@]3(CCC(=O)[C@H]32)[C@@H](C)[C@@H]1O [RETAPAMULIN] | 755 | 4.12 | 3.29 | 0.063 (≈ 0.122 µM) | 100 | > 120 | 98.6 | 99.2 | 98.1 | 0.063 (≈ 0.122 µM) | 99 | 99.2 | 0.063 (≈ 0.122 µM) | > 64 | 0.5 (≈ 0.966 µM) | 4 (≈ 7.73 µM) | – |
| C=C[C@]1(C)C[C@@H](OC(=O)CSc2nc3cc(OC)ccc3c(=O)[nH]2)[C@]2(C)[C@H](C)CC[C@]3(CCC(=O)[C@H]32)[C@@H](C)[C@@H]1O | – | – | – | 0.25 (≈ 0.44 µM) | – | – | – | – | – | 0.25 (≈ 0.44 µM) | – | – | 0.25 (≈ 0.44 µM) | > 64 | 1 (≈ 1.76 µM) | > 64 | – |
| C=C[C@]1(C)C[C@@H](OC(=O)CSc2nc3ncccc3c(=O)[nH]2)[C@]2(C)[C@H](C)CC[C@]3(CCC(=O)[C@H]32)[C@@H](C)[C@@H]1O | – | – | – | 2 (≈ 3.71 µM) | – | – | – | – | – | 2 (≈ 3.71 µM) | – | – | 4 (≈ 7.41 µM) | > 64 | 8 (≈ 14.8 µM) | > 64 | – |
| C=C[C@]1(C)C[C@@H](OC(=O)CSc2nc3cccc(Br)c3c(=O)n2-c2ccccc2)[C@]2(C)[C@H](C)CC[C@]3(CCC(=O)[C@H]32)[C@@H](C)[C@@H]1O | – | – | – | > 64 | – | – | – | – | – | > 64 | – | – | > 64 | > 64 | > 64 | > 64 | – |
| C=C[C@]1(C)C[C@@H](OC(=O)CSc2nc3c(Cl)cccc3c(=O)[nH]2)[C@]2(C)[C@H](C)CC[C@]3(CCC(=O)[C@H]32)[C@@H](C)[C@@H]1O | – | – | – | 0.125 (≈ 0.218 µM) | – | – | – | – | – | 0.125 (≈ 0.218 µM) | – | – | 0.125 (≈ 0.218 µM) | > 64 | 1 (≈ 1.74 µM) | > 64 | – |
| C=C[C@]1(C)C[C@@H](OC(=O)CSc2nc3cc(F)ccc3c(=O)[nH]2)[C@]2(C)[C@H](C)CC[C@]3(CCC(=O)[C@H]32)[C@@H](C)[C@@H]1O | – | – | – | 0.25 (≈ 0.449 µM) | – | – | – | – | – | 0.5 (≈ 0.898 µM) | – | – | 0.5 (≈ 0.898 µM) | > 64 | 4 (≈ 7.19 µM) | > 64 | – |
